The source of these data is US11180504B2 (ORCHID PHARMA LTD., priority 2016, dated 2021).

SMILES strings stand for the structures. Converted amounts (≈) assume the structure as drawn. Read-outs that look alike come from different tables or passages of the source.

In assay [1] the test system is methicillin-sensitive Staphylococcus aureus. Description: MIC by broth micro-dilution (CLSI), methicillin-sensitive S. aureus. The note with it: Staphylococcus aureus, ATCC 29213 / MSSA, MSSA S. aureus ATCC29213; read-out: MIC. The assay is classed as cell-based. (Dilution methods test growth across graded concentrations, often in twofold steps.)
In assay [2] the test system is carbapenem sensitive Escherichia coli. Description: MIC by broth micro-dilution (CLSI), carbapenem sensitive E. coli. The assay is classed as cell-based. The note with it: Escherichia coli, ATCC25922, ESBL −ve E. coli ATCC25922; read-out: MIC.
Assay [3] concerns carbapenemase producing K. pneumoniae. Description: MIC by broth micro-dilution (CLSI), carbapenemase producing K. pneumoniae. The assay is classed as cell-based, Klebsiella pneumoniae. The note with it: Klebsiella pneumoniae.
Assay [4] relates to carbapenem sensitive Pseudomonas aeruginosa. Description: MIC by broth micro-dilution (CLSI), carbapenem sensitive P. aeruginosa. It counts as cell-based. The note with it: Pseudomonas aeruginosa, ATCC27853, Meropenem susceptible P. aeruginosa ATCC27853; read-out: MIC.
Setting [5] is: ATCCBAA1705, KPC-2 K. pneumoniae ATCC BAA-1705, read-out: MIC.

As for `C[C@@H](NC(=O)Cn1cnnn1)[C@H]1C(=O)N2C(C(=O)O)=C(S[C@@H]3CN[C@H](C(=O)N4CCC5(CC6CCC(C5)N6)C4)C3)[C@H](C)[C@H]12` (stereo partly drawn) [Example 397, (4R,5S,6R)-6-((R)-1-(2-(1H-tetrazol-1-yl)acetamido)ethyl)-3-((3S,5S)-5-(8-azaspiro[bicyclo[3.2.1]octane-3,3′-pyrrolidine]-1′-ylcarbonyl)pyrrolidin-3-ylthio)-4-methyl-7-oxo-1-azabicyclo[3.2.0]hept-2-ene-2-carboxylic acid], the minimum inhibitory concentration (MIC) (in general, the least concentration at which growth counts as inhibited) is 2 µg/mL (≈ 3.26 µM) in assay [1], 0.25 µg/mL (≈ 0.407 µM) in assay [2], 1 µg/mL (≈ 1.63 µM) in assay [3] (ATCCBAA1705) and 2 µg/mL (≈ 3.26 µM) in assay [4].
Take `C[C@@H](NC(=O)Cn1cnnn1)[C@H]1C(=O)N2C(C(=O)O)=C(S[C@@H]3CN[C@H](C(=O)N4CC[C@@H](NC(=O)CN)C4)C3)[C@H](C)[C@H]12` [Example 398, (4R,5S,6R)-6-((R)-1-(2-(1H-tetrazol-1-yl)acetamido)ethyl)-3-((3S,5S)-5-((R)-3-(2-aminoacetamido)pyrrolidine-1-carbonyl)pyrrolidin-3-ylthio)-4-methyl-7-oxo-1-azabicyclo[3.2.0]hept-2-ene-2-carboxylic acid]: the MIC was 4 µg/mL (≈ 6.77 µM) in assay [1], 0.25 µg/mL (≈ 0.423 µM) in assay [2], 1 µg/mL (≈ 1.69 µM) in assay [3] (setting [5]) and 2 µg/mL (≈ 3.39 µM) in assay [4].
Taken in the same sequence, the figures for `C[C@@H](NC(=O)Cn1cnnn1)[C@H]1C(=O)N2C(C(=O)O)=C(S[C@@H]3CN[C@H](C(=O)N4CC[C@@H](NC(=N)N)C4)C3)[C@H](C)[C@H]12` [Example 399, (4R,5S,6R)-6-((R)-1-(2-(1H-tetrazol-1-yl)acetamido)ethyl)-3-((3S,5S)-5-((R)-3-guanidinopyrrolidine-1-carbonyl)pyrrolidin-3-ylthio)-4-methyl-7-oxo-1-azabicyclo[3.2.0]hept-2-ene-2-carboxylic acid] were 2 µg/mL (≈ 3.47 µM), 0.125 µg/mL (≈ 0.217 µM), 2 µg/mL (≈ 3.47 µM) and 8 µg/mL (≈ 13.9 µM).
For `C[C@@H](NC(=O)Cn1cnnn1)[C@H]1C(=O)N2C(C(=O)O)=C(S[C@@H]3CN[C@H](C(=O)N4C[C@@H](N)[C@@H](O)C4)C3)[C@H](C)[C@H]12` [Example 400, (4R,5S,6R)-6-((R)-1-(2-(1H-tetrazol-1-yl)acetamido)ethyl)-3-((3S,5S)-5-((3R,4S)-3-amino-4-hydroxypyrrolidine-1-carbonyl)pyrrolidin-3-ylthio)-4-methyl-7-oxo-1-azabicyclo[3.2.0]hept-2-ene-2-carboxylic acid], in that order: 4 µg/mL (≈ 7.28 µM), 0.125 µg/mL (≈ 0.227 µM), 1 µg/mL (≈ 1.82 µM) and 1 µg/mL (≈ 1.82 µM).
Taken in the same sequence, the figures for `C[C@@H](NC(=O)Cn1cnnn1)[C@H]1C(=O)N2C(C(=O)O)=C(S[C@@H]3CN[C@H](C(=O)N4CC[C@@H](NCCN)C4)C3)[C@H](C)[C@H]12` [Example 401, (4R,5S,6R)-6-((R)-1-(2-(1H-tetrazol-1-yl)acetamido)ethyl)-3-((3S,5S)-5-((R)-3-(2-aminoethylamino)pyrrolidine-1-carbonyl)pyrrolidin-3-ylthio)-4-methyl-7-oxo-1-azabicyclo[3.2.0]hept-2-ene-2-carboxylic acid] were 8 µg/mL (≈ 13.9 µM), 0.5 µg/mL (≈ 0.867 µM), 2 µg/mL (≈ 3.47 µM) and 2 µg/mL (≈ 3.47 µM).
Turning to `C[C@@H](NC(=O)Cn1cnnn1)[C@H]1C(=O)N2C(C(=O)O)=C(S[C@@H]3CN[C@H](C(=O)Nc4ccncc4)C3)[C@H](C)[C@H]12` [Example 402, (4R,5S,6R)-6-((R)-1-(2-(1H-tetrazol-1-yl)acetamido)ethyl)-4-methyl-7-oxo-3-((3S,5S)-5-(pyridin-4-ylcarbamoyl)pyrrolidin-3-ylthio)-1-azabicyclo[3.2.0]hept-2-ene-2-carboxylic acid], the MIC turned out to be 1 µg/mL (≈ 1.85 µM) in assay [1], 0.06 µg/mL (≈ 0.111 µM) in assay [2], 1 µg/mL (≈ 1.85 µM) in assay [3] (setting [5]) and 32 µg/mL (≈ 59.1 µM) in assay [4].
Consider `C[C@@H](NC(=O)Cn1nnnc1C(=O)O)[C@H]1C(=O)N2C(C(=O)O)=C(S[C@@H]3CN[C@H](C(=O)N4CC[C@@H](N)C4)C3)[C@H](C)[C@H]12` [Example 403, (4R,5S,6R)-3-((3S,5S)-5-((R)-3-aminopyrrolidine-1-carbonyl)pyrrolidin-3-ylthio)-6-((R)-1-(2-(5-carboxy-1H-tetrazol-1-yl)acetamido)ethyl)-4-methyl-7-oxo-1-azabicyclo[3.2.0]hept-2-ene-2-carboxylic acid], for which the MIC in assay [1] is 4 µg/mL (≈ 6.92 µM); in assay [2], 0.5 µg/mL (≈ 0.866 µM); in assay [3] (setting [5]), 8 µg/mL (≈ 13.8 µM); in assay [4] it was 16 µg/mL (≈ 27.7 µM).
Consider `C[C@@H](NC(=O)Cn1cnnn1)[C@H]1C(=O)N2C(C(=O)O)=C(S[C@@H]3CN[C@H](C(=O)N4CCC(CN)CC4)C3)[C@H](C)[C@H]12` [Example 404, (4R,5S,6R)-6-((R)-1-(2-(1H-tetrazol-1-yl)acetamido)ethyl)-3-((3S,5S)-5-(4-(aminomethyl)piperidine-1-carbanoyl)pyrrolidin-3-ylthio)-4-methyl-7-oxo-1-azabicyclo[3.2.0]hept-2-ene-2-carboxylic acid], for which the MIC in assay [1] came out at 1 µg/mL (≈ 1.78 µM); in assay [2] it was 0.25 µg/mL (≈ 0.445 µM); in assay [3] (setting [5]) it was 0.5 µg/mL (≈ 0.89 µM); in assay [4], 1 µg/mL (≈ 1.78 µM).
Regarding `C[C@@H](NC(=O)Cn1cnnn1)[C@H]1C(=O)N2C(C(=O)O)=C(S[C@@H]3CN[C@H](C(=O)N4CC(C)(N)C4)C3)[C@H](C)[C@H]12` [Example 405, (4R,5S,6R)-6-((R)-1-(2-(1H-tetrazol-1-yl)acetamido)ethyl)-3-((3S,5S)-5-(3-amino-3-methylazetidine-1-carbonyl)pyrrolidin-3-ylthio)-4-methyl-7-oxo-1-azabicyclo[3.2.0]hept-2-ene-2-carboxylic acid], the MIC in assay [1] is 4 µg/mL (≈ 7.5 µM); in assay [2], 0.125 µg/mL (≈ 0.234 µM); in assay [3] (setting [5]), 2 µg/mL (≈ 3.75 µM); in assay [4], 4 µg/mL (≈ 7.5 µM).
Take `C[C@@H](NC(=O)Cn1cnnn1)[C@H]1C(=O)N2C(C(=O)O)=C(S[C@@H]3CN[C@H](C(=O)N4CCN([C@H]5CCNC5)CC4)C3)[C@H](C)[C@H]12` [Example 406, (4R,5S,6R)-6-((R)-1-(2-(1H-tetrazol-1-yl)acetamido)ethyl)-4-methyl-7-oxo-3-((3S,5S)-5-(4-((S)-pyrrolidin-3-yl]piperazine-1-carbonyl]pyrrolidin-3-ylthio)-1-azabicyclo[3.2.0]hept-2-ene-2-carboxylic acid]: the MIC was determined as 4 µg/mL (≈ 6.64 µM) in assay [1], 0.25 µg/mL (≈ 0.415 µM) in assay [2], 2 µg/mL (≈ 3.32 µM) in assay [3] (setting [5]) and 16 µg/mL (≈ 26.5 µM) in assay [4].
For `C[C@@H](NC(=O)Cn1cnnn1)[C@H]1C(=O)N2C(C(=O)O)=C(SC3CNC3)[C@H](C)[C@H]12` [Example 407, (4R,5S,6R)-6-((R)-1-(2-(1H-tetrazol-1-yl)acetamido)ethyl)-3-(azetidin-3-ylthio)-4-methyl-7-oxo-1-azabicyclo[3.2.0]hept-2-ene-2-carboxylic acid], in that order: 2 µg/mL (≈ 4.91 µM), 0.5 µg/mL (≈ 1.23 µM), 1 µg/mL (≈ 2.45 µM) and 8 µg/mL (≈ 19.6 µM).
Taken in the same sequence, the figures for `C[C@@H](NC(=O)Cn1cnnn1)[C@H]1C(=O)N2C(C(=O)O)=C(S[C@@H]3CN[C@H](C(=O)N4CCN(C5CNC5)CC4)C3)[C@H](C)[C@H]12` [Example 408, (4R,5S,6R)-6-((R)-1-(2-(1H-tetrazol-1-yl)acetamido)ethyl)-3-((3S,5S)-5-(4-(azetidin-3-yl)piperazine-1-carbonyl)pyrrolidin-3-ylthio)-4-methyl-7-oxo-1-azabicyclo[3.2.0]hept-2-ene-2-carboxylic acid] were 4 µg/mL (≈ 6.79 µM), 1 µg/mL (≈ 1.7 µM), 2 µg/mL (≈ 3.4 µM) and 2 µg/mL (≈ 3.4 µM).
For `C[C@@H](NC(=O)Cn1cnnn1)[C@H]1C(=O)N2C(C(=O)O)=C(S[C@@H]3CN[C@H](C(=O)N4CCC(N5CC[C@@H](N)C5)CC4)C3)[C@H](C)[C@H]12` [Example 409, (4R,5S,6R)-6-((R)-1-(2-(1H-tetrazol-1-yl)acetamido)ethyl)-3-((3S,5S)-5-(4-((R)-3-aminopyrrolidin-1-yl)piperidine-1-carbonyl)pyrrolidin-3-ylthio)-4-methyl-7-oxo-1-azabicyclo[3.2.0]hept-2-ene-2-carboxylic acid], in that order: 4 µg/mL (≈ 6.49 µM), 1 µg/mL (≈ 1.62 µM), 2 µg/mL (≈ 3.24 µM) and 4 µg/mL (≈ 6.49 µM).
Turning to `C[C@@H](NC(=O)Cn1cnnn1)[C@H]1C(=O)N2C(C(=O)O)=C(S[C@@H]3CN[C@H](C(=O)N4CC[C@@H](N(C)C)C4)C3)[C@H](C)[C@H]12` [Example 410, (4R,5S,6R)-6-((R)-1-(2-(1H-tetrazol-1-yl)acetamido)ethyl)-3-((3S,5S)-5-((R)-3-(dimethylamino)pyrrolidine-1-carbonyl)pyrrolidin-3-ylthio)-4-methyl-7-oxo-1-azabicyclo[3.2.0]hept-2-ene-2-carboxylic acid], the MIC in assay [1] came out at 2 µg/mL (≈ 3.56 µM); in assay [2], 0.5 µg/mL (≈ 0.89 µM); in assay [3] (setting [5]) it was 4 µg/mL (≈ 7.12 µM); in assay [4], 4 µg/mL (≈ 7.12 µM).
Consider `C[C@@H]1C[C@H](N)CN1C(=O)[C@@H]1C[C@H](SC2=C(C(=O)O)N3C(=O)[C@H]([C@@H](C)NC(=O)Cn4cnnn4)[C@H]3[C@H]2C)CN1` [Example 411, (4R,5S,6R)-6-((R)-1-(2-(1H-tetrazol-1-yl)acetamido)ethyl)-3-((3S,5S)-5-((2R,4S)-4-amino-2-methylpyrrolidine-1-carbonyl)pyrrolidin-3-ylthio)-4-methyl-7-oxo-1-azabicyclo[3.2.0]hept-2-ene-2-carboxylic acid], for which the MIC in assay [1] stood at 2 µg/mL (≈ 3.65 µM); in assay [2] it was 0.25 µg/mL (≈ 0.457 µM); in assay [3] (setting [5]) it was 1 µg/mL (≈ 1.83 µM); in assay [4], 1 µg/mL (≈ 1.83 µM).
